According to PubChem BioAssay AID1259407 (Chemical Carcinogenesis Research Information System (CCRIS), 2018):
Activity calls are given as the source filed them. The rule behind the calls is not given here.

System: CCRIS mutagenicity, Ames/micronucleus/aberration tests
Test: CCRIS mutagenicity studies
[1] = Test System: AMES SALMONELLA TYPHIMURIUM, Strain/Indicator: TA98, Metabolic Activation: NONE, Method: PREINCUBATION
[2] = Test System: AMES SALMONELLA TYPHIMURIUM, Strain/Indicator: TA100, Metabolic Activation: NONE, Method: PREINCUBATION
[3] = Test System: AMES SALMONELLA TYPHIMURIUM, Strain/Indicator: TA98, Metabolic Activation: NONE, Method: STANDARD PLATE
[4] = Test System: AMES SALMONELLA TYPHIMURIUM, Strain/Indicator: TA100, Metabolic Activation: NONE, Method: STANDARD PLATE

## Cc1cnc2ccccc2c1
[1]
  mutagenic call: inactive; negative
Test System: AMES SALMONELLA TYPHIMURIUM, Strain/Indicator: TA98, Metabolic Activation: RAT, LIVER, S-9, Method: PREINCUBATION
  mutagenic call: inactive; negative
[2]
  mutagenic call: inactive; negative
Test System: AMES SALMONELLA TYPHIMURIUM, Strain/Indicator: TA100, Metabolic Activation: RAT, LIVER, S-9, PHENOBARBITAL AND 5,6-BENZOFLAVONE, Method: PREINCUBATION
  mutagenic call: active; positive
Test System: AMES SALMONELLA TYPHIMURIUM, Strain/Indicator: TA100, Metabolic Activation: RAT, LIVER, S-9, PHENOBARBITAL AND 5,6-NAPHTHOFLAVONE, Method: PREINCUBATION
  mutagenic call: active; positive

## Nc1c(N=Nc2ccc([N+](=O)[O-])cc2)c(S(=O)(=O)O)cc2c1C(=O)/C(=N\Nc1ccc(-c3ccc(NN=C4C=CC(=O)C=C4)cc3)cc1)C(S(=O)(=O)O)=C2
Test System: AMES SALMONELLA TYPHIMURIUM, Strain/Indicator: TA98, Metabolic Activation: HAMSTER, LIVER, S-9, Method: PREINCUBATION (PRIVAL METHOD)
  mutagenic call: active; positive
[3]
  mutagenic call: inactive; negative
Test System: AMES SALMONELLA TYPHIMURIUM, Strain/Indicator: TA98, Metabolic Activation: RAT, LIVER, S-9, PHENOBARBITAL, Method: STANDARD PLATE
  mutagenic call: inactive; negative
[4]
  mutagenic call: inactive; negative
Test System: AMES SALMONELLA TYPHIMURIUM, Strain/Indicator: TA100, Metabolic Activation: RAT, LIVER, S-9, PHENOBARBITAL, Method: STANDARD PLATE
  mutagenic call: inactive; negative

## Nc1ccc(N)c(S(=O)(=O)O)c1
[1]
  mutagenic call: inactive; negative
Test System: AMES SALMONELLA TYPHIMURIUM, Strain/Indicator: TA98, Metabolic Activation: RAT, LIVER, S-9, AROCLOR 1254, Method: PREINCUBATION
  mutagenic call: inactive; negative
[2]
  mutagenic call: inactive; negative
Test System: AMES SALMONELLA TYPHIMURIUM, Strain/Indicator: TA100, Metabolic Activation: RAT, LIVER, S-9, AROCLOR 1254, Method: PREINCUBATION
  mutagenic call: inactive; negative
Test System: UDS RODENT HEPATOCYTES, Strain/Indicator: THY INCORP (NON-S-PHASE), Metabolic Activation: NONE, Method: AUTORADIOGRAPHY
  mutagenic call: active; positive

## COc1cccc2c1C(=O)c1c(O)c3c(c(O)c1C2=O)C[C@@](O)(C(C)=O)C[C@@H]3O[C@@H]1C[C@@H](N(C)C)[C@@H](O)[C@@H](C)O1
Test System: AMES SALMONELLA TYPHIMURIUM, Strain/Indicator: TA102, Metabolic Activation: NONE, Method: STANDARD PLATE
  mutagenic call: active; positive

## O=C(c1ccc([N+](=O)[O-])cc1)[C@@H]1O[C@@H]1c1ccccc1
[3]
  mutagenic call: inactive; negative
Test System: AMES SALMONELLA TYPHIMURIUM, Strain/Indicator: TA98, Metabolic Activation: RAT, LIVER, S-9, AROCLOR 1254, Method: STANDARD PLATE
  mutagenic call: inactive; negative
[4]
  mutagenic call: active; positive
Test System: AMES SALMONELLA TYPHIMURIUM, Strain/Indicator: TA100, Metabolic Activation: RAT, LIVER, S-9, AROCLOR 1254, Method: STANDARD PLATE
  mutagenic call: active; positive
